Values of other authors as cited in patent US20020169561A1, “Modular computational models for predicting the pharmaceutical properties of chemical compunds” (priority 2001, published 2002).
Where “and” joins values, the source holds several entries; their conditions need not be identical. Equal entries are not always repeated. Where two headings read alike, the source gives them in different places.

Assays:
[1] = in vivo drug absorption, compiled by search of the literature
renin = biological target: T1, renin (Homo sapiens, UniProt P00797); parameters: −ΔS: unit not given here; settings: for −ΔH: enthalpy of binding to renin; for −ΔS: entropy of binding to renin; for −ΔG: free energy of binding to renin; for Kd: renin inhibitors
T1 sequence (P00797 67-406): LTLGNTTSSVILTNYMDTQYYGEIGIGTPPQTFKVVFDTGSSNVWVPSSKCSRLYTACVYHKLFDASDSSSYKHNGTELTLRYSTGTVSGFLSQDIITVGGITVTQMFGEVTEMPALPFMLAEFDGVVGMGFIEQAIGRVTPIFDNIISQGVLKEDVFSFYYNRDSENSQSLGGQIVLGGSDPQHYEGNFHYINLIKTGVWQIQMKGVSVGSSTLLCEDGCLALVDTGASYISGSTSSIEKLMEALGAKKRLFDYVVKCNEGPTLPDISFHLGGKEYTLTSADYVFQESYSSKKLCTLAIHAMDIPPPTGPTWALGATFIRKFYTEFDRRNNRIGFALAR

[2] = Caco-2 permeability coefficient, Table 3
[3] = observed, training set, Table 7

Row | Molecule | Permeability × 10^6 (cm/sec) (Caco-2 cell monolayer; [2]) | Obs. Pcaco-2x10^6 (Caco-2 cell monolayer; [3]) | % Absorbed [1] [%] | also measured
1 | Nc1nc2c(ncn2COCCO)c(=O)[nH]1 [Acyclovir] | 0.25 × 10^6 (cm/sec) | 0.25 x10^6 | – | –
2 | C=CCc1ccccc1OCC(O)CNC(C)C (stereo not shown) [Alprenolol] | 25.30 × 10^6 (cm/sec) | 25.3 x10^6 | 93 | –
3 | Cc1c(N(C)C)c(=O)n(-c2ccccc2)n1C [Aminopyrine] | 36.5 × 10^6 (cm/sec) | – | – | –
4 | CCC12CCN(CC3(O)CC3)C(Cc3ccc(O)cc31)C2(C)C (stereo not shown) [Bremazocine] | – | 8.02 x10^6 | – | Permeability × 10^6 (cm/sec) (Caco-2 cell monolayer; Caco-2): 8.02 × 10^6 (cm/sec)
5 | CN(C)CCCN1c2ccccc2Sc2ccc(Cl)cc21 [Chlorpromazine] | 19.90 × 10^6 (cm/sec) | 19.9 x10^6 | 90 | –
6 | Clc1cccc(Cl)c1N=C1NCCN1 [Clonidine] | 21.80 × 10^6 (cm/sec) | 21.8 x10^6 | 100 | –
7 | C[C@]12C[C@H](O)[C@H]3[C@@H](CCC4=CC(=O)CC[C@@]43C)[C@@H]1CC[C@@H]2C(=O)CO [Corticosterone] | – | 21.2 x10^6 | 100 | –
8 | CNCCCN1c2ccccc2CCc2ccccc21 [Desipramine] | 24.20 × 10^6 (cm/sec) | 24.2 x10^6 | 95 | –
9 | C[C@@H]1C[C@H]2[C@@H]3CCC4=CC(=O)C=C[C@]4(C)[C@@]3(F)[C@@H](O)C[C@]2(C)[C@@]1(O)C(=O)CO [Dexamethasone] | – | – | 100 | –
10 | CN1C(=O)CN=C(c2ccccc2)c2cc(Cl)ccc21 [Diazepam] | – | – | 100 | –
11 | NCCc1ccc(O)c(O)c1 [Dopamine] | 9.33 × 10^6 (cm/sec) | 9.33 x10^6 | – | –
12 | Nc1nc(O)c2ncn(COC(CO)CO)c2n1 [Ganciclovir] | – | – | 3 | –
13 | COc1ccc2c(c1)c(CC(=O)O)c(C)n2C(=O)c1ccc(Cl)cc1 [Indomethacin] | 20.40 × 10^6 (cm/sec) | 20.4 x10^6 | – | –
14 | CC(CCc1ccccc1)NCC(O)c1ccc(O)c(C(N)=O)c1 (stereo not shown) [Labetalol] | – | – | 90 | –
15 | OC[C@@H](O)[C@@H](O)[C@H](O)[C@H](O)CO [Mannitol] | 0.38 × 10^6 (cm/sec) | – | 16 | –
16 | COCCc1ccc(OCC(O)CNC(C)C)cc1 (stereo not shown) [Metoprolol] | 23.70 × 10^6 (cm/sec) | 23.7 x10^6 | – | –
17 | CC(C)(C)NCC(O)COc1cccc2c1CC(O)C(O)C2 (stereo not shown) [Nadolol] | 3.88 × 10^6 (cm/sec) | 3.88 x10^6 | – | –
18 | CN1CCCC1c1cccnc1 (stereo not shown) [Nicotine] | – | – | 100 | Obs. Pcaco-2x10^6 (Caco-2 cell monolayer; Caco-2): 19.4 x10^6; Permeability × 10^6 (cm/sec) (Caco-2 cell monolayer; Caco-2): 19.40 × 10^6 (cm/sec)
19 | c1ccc(C2(N3CCCCC3)CCCCC2)cc1 [Phencyclidine] | – | – | – | Obs. Pcaco-2x10^6 (Caco-2 cell monolayer; Caco-2): 24.7 x10^6; Permeability × 10^6 (cm/sec) (Caco-2 cell monolayer; Caco-2): 24.70 × 10^6 (cm/sec)
20 | O=C1NC(=O)C(c2ccccc2)(c2ccccc2)N1 [Phenytoin] | 26.70 × 10^6 (cm/sec) | 26.7 x10^6 | 90 | –
21 | CC(C)NCC(O)COc1cccc2[nH]ccc12 (stereo not shown) [Pindolol] | 16.70 × 10^6 (cm/sec) | 16.7 x10^6 | 95 | –

Row | Molecule | Permeability × 10^6 (cm/sec) (Caco-2 cell monolayer; [2]) | Obs. Pcaco-2x10^6 (Caco-2 cell monolayer; [3]) | % Absorbed [1] [%] | also measured
22 | CC(=O)[C@H]1CC[C@H]2[C@@H]3CCC4=CC(=O)CC[C@]4(C)[C@H]3CC[C@]12C [Progesterone] | 23.70 × 10^6 (cm/sec) | 23.7 x10^6 | – | –
23 | CC(C)NCC(O)COc1cccc2ccccc12 (stereo not shown) [Propranolol] | 21.80 × 10^6 (cm/sec) | – | – | –
24 | O=C(O)c1ccccc1O [Salicylic acid] | 22.00 × 10^6 (cm/sec) | 22 x10^6 | – | –
25 | O=C(O)c1cc(/N=N/c2ccc(S(=O)(=O)Nc3ccccn3)cc2)ccc1O [Sulfasalazine] | 0.30 × 10^6 (cm/sec) | 0.3 x10^6 | – | –
26 | CC(C)(C)NCC(O)c1cc(O)cc(O)c1 (stereo not shown) [Terbutaline] | 0.47 × 10^6 (cm/sec) | 0.47 x10^6 | 73 | –
27 | C[C@]12CC[C@H]3[C@@H](CCC4=CC(=O)CC[C@@]43C)[C@@H]1CC[C@@H]2O [Testosterone] | – | – | 100 | Obs. Pcaco-2x10^6 (Caco-2 cell monolayer; Caco-2): 24.9 x10^6
28 | CC(C)(C)NC[C@H](O)COc1nsnc1N1CCOCC1 [Timolol] | 12.80 × 10^6 (cm/sec) | 12.8 x10^6 | 72 | –
29 | NC(N)=O [Urea] | 4.56 × 10^6 (cm/sec) | – | – | –
30 | CC(=O)CC(c1ccccc1)c1c(O)c2ccccc2oc1=O (stereo not shown) [Warfarin] | 21.10 × 10^6 (cm/sec) | – | – | –
31 | Cc1cn([C@H]2C[C@H](N=[N+]=[N-])[C@@H](CO)O2)c(=O)[nH]c1=O [Zidovudine] | 6.93 × 10^6 (cm/sec) | – | 100 | –
32 | Ac-D-pro-phe-his-leu-Y[CH(OH)CH2]val-ile-NH2 [Compound U77647E] | – | – | – | −ΔH (renin): 20.33 kcal/mol; −ΔS (renin): 105.5; −ΔG (renin): 12.4 kcal/mol; Kd (renin): 1.3 nM
33 | Ac-his-pro-phe-his-sta-ile-NH2 [Compound U72409E] | – | – | – | −ΔH (renin): 22.63 kcal/mol; −ΔS (renin): 108.0; −ΔG (renin): 10.8 kcal/mol; Kd (renin): 23 nM
34 | Ac-phe-his-leu-y[CH(OH)CH2]val-ile-NH2 [Compound U80631E] | – | – | – | −ΔH (renin): 14.28 kcal/mol; −ΔS (renin): 75.7; −ΔG (renin): 9.2 kcal/mol; Kd (renin): 370 nM
35 | Ac-phe-his-phe-Y[CH2NH]phe-NH2 [Compound U73777E] | – | – | – | −ΔH (renin): 14.20 kcal/mol; −ΔS (renin): 76.3; −ΔG (renin): 9.4 kcal/mol; Kd (renin): 220 nM
36 | Ac-phe-his-sta-ile-NH2 [Compound U72407E] | – | – | – | −ΔH (renin): 26.10 kcal/mol; −ΔS (renin): 114.8; −ΔG (renin): 9.5 kcal/mol; Kd (renin): 203 nM and 204 nM
37 | Ac-pro-phe-his-leu-Y[CH(OH)CH2]val-ile-NH2 [Compound U77646E] | – | – | – | −ΔH (renin): 28.75 kcal/mol; −ΔS (renin): 131.1; −ΔG (renin): 11.5 kcal/mol; Kd (renin): 5.4 nM
38 | Ac-pro-phe-his-phe-Y[CH2NH]phe-Mba [Compound U77451E] | – | – | – | −ΔH (renin): 26.70 kcal/mol; −ΔS (renin): 125.3; −ΔG (renin): 12.2 kcal/mol; Kd (renin): 2.5 nM
39 | Ac-pro-phe-his-phe-Y[CH2NH]phe-NH2 [Compound U71909E] | – | – | – | −ΔH (renin): 13.70 kcal/mol; −ΔS (renin): 78.4; −ΔG (renin): 10.6 kcal/mol; Kd (renin): 29 nM
40 | Ac-pro-phe-his-sta-ile-NH2 [Compound U72408E] | – | – | – | −ΔH (renin): 14.69 kcal/mol; −ΔS (renin): 79.6; −ΔG (renin): 9.9 kcal/mol; Kd (renin): 98 nM
41 | Iva-his-pro-phe-his-sta-ile-phe-NH2 [Compound U77455E] | – | – | – | −ΔH (renin): 21.36 kcal/mol; −ΔS (renin): 108.9; −ΔG (renin): 12.4 kcal/mol; Kd (renin): 1.7 nM
